The record followed here is ChEMBL document CHEMBL5143731, “N-Acylamino Saccharin as an Emerging Cysteine-Directed Covalent Warhead and Its Application in the Identification of Novel FBPase Inhibitors toward Glucose Reduction” (J Med Chem, 2022).

The nature of data set [1]: AUCt in 12 hrs fasted ICR mouse at 30 mg/kg, ip measured after 24 hrs by LC-MS/MS analysis. Particulars: in vivo.
Data set [2] in a line: in vivo. Particulars: ICR, mouse, ip, 30 mg/kg.
A short description of data set [3]: in vivo. Conditions: ICR, mouse, ip, 30 mg/kg. This is another data set of the same source.
The nature of data set [4]: in vivo. Conditions: ICR, mouse, ip, 30 mg/kg. The source holds these as a separate data set.

Turning to `O=C1NS(=O)(=O)c2ccccc21` [SACCHARIN], the AUC(0-t) at 12 h in data set [1] stood at 14000 ng·h/mL. In addition, in the data set “in vivo [2]”, the half-life at 12 h was 66.6 min. In addition, the Tmax at 12 h in “in vivo [3]” was 15 min. This molecule also returned a Cmax at 12 h in the data set “in vivo [4]” of 29900 ng/mL.
